Data: BindingDB's records for doi:10.1016/j.bmcl.2012.08.044 (Lundbeck Research Usa, 2012)

How the values were obtained:
Cytochrome P450 2D6 = Cytochrome P450 2D6 (Homo sapiens, UniProt P10635); assay: Inhibition of CYP2D6
Cytochrome P450 3A4 = Cytochrome P450 3A4 (Homo sapiens, UniProt P08684); assay: Inhibition of CYP3A4
Sequence of Cytochrome P450 3A4 (P08684 whole entry): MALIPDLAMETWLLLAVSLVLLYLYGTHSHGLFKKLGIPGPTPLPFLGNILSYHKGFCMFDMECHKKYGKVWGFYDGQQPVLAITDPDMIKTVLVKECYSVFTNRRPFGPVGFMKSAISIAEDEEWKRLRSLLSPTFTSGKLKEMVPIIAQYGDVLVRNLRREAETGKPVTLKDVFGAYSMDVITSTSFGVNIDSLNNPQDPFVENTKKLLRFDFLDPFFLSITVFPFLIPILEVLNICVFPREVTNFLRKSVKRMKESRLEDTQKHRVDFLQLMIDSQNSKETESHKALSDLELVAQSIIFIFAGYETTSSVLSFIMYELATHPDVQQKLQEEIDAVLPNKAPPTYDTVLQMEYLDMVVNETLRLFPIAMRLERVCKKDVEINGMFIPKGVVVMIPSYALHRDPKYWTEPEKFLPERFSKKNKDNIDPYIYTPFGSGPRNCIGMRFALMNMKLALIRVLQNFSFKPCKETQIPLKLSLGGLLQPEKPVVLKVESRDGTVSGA

Sequence of Cytochrome P450 2D6 (P10635 whole entry): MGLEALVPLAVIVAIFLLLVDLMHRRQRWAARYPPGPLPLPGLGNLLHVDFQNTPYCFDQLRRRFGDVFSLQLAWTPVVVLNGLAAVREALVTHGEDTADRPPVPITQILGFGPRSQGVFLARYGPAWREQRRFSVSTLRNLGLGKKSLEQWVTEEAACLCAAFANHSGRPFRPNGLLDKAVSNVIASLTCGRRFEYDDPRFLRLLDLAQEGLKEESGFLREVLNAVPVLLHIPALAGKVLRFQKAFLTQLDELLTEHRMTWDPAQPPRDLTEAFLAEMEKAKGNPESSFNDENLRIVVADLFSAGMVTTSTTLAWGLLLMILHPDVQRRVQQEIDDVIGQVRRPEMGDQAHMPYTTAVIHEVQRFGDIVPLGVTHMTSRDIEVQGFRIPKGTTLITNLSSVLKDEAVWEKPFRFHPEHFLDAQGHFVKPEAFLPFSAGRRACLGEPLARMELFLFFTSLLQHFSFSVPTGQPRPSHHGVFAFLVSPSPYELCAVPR

| SMILES | IC50 (Cytochrome P450 2D6) [µM] | IC50 (Cytochrome P450 3A4) [µM] |
| --- | --- | --- |
| CC1CCCCC1C(=O)N1CC(c2nc(-c3cccc(F)c3)no2)C1 (centres undefined) | 40 | 25 |
| O=C(C1CCC(F)(F)CC1)N1CC(c2nc(-c3cccc(Cl)c3)no2)C1 | 33 | 25 |
